Our source for the IC50 values is US7868177B2, “Multi-cyclic compounds and method of use” (Amgen Inc., priority 2006, dated 2011).

pIC50: −log10 of the molar value.

This experiment deals with T1, AuroraA-TPX2 (Homo sapiens, UniProt O14965).
T1 construct: 20 μL of AuroraA-TPX2 KD GST for a final volume of 41 μL; GST
T1 sequence (O14965 133-383 limits assumed): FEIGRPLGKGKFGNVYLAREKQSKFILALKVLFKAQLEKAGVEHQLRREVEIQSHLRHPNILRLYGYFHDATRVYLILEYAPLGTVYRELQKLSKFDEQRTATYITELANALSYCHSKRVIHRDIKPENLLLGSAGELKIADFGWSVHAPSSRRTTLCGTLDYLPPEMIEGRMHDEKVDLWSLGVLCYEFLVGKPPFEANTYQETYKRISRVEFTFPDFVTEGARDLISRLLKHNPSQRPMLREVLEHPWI
T1 sequence (Q9ULW0 1-43 partner limits assumed): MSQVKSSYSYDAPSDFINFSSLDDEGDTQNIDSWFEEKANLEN
The experiment in a line: AuroraA-TPX2 HTRF kinase assay (Aurora kinase A HTRF assay). The class given is biochemical. Here is the method: AuroraA-TPX2-Homogeneous Time Resolved Fluorescent (HTRF) Kinase Assay:
The AuroraA HTRF assay begins with AuroraA in the presence of ATP phosphorylating the biotinylated peptide PLK. The reaction incubates for about 120 min. Detection reagents are added to quench the reaction. These agents stop the reaction by diluting out the enzyme and chelating the metals due to the presence of EDTA. After addition, the assay is incubated overnight to allow the detection reagents to equilibrate.
The AuroraA HTRF assay comprises 1 μL of compound in 100% DMSO, 20 μL of ATP and biotinylated PLK, and 20 μL of AuroraA-TPX2 KD GST for a final volume of 41 μL. The final concentration of PLK is about 1 μM. […] Buffer conditions are as follows: 60 mM HEPES pH 7.5, 25 mM NaCl, 10 mM MgCl, 2 mM DTT, 0.05% BSA.
The assay is quenched and stopped with 160 μL of detection reagent. Detection reagents are as follows: Buffer made of 50 mM Tris, pH 7.5, 100 mM NaCl, 3 mM EDTA, 0.05% BSA, 0.1% Tween20. Added to this buffer prior to reading is Steptavidin allophycocyanin (SA-APC) at a final conc in the assay of 0.0005 mg/mL, and europilated anti-phosphoPLK Ab (Eu-anti-PLK) at a final conc of 0.02 nM.
The assay plate is read in either a Discovery or a RubyStar. The eu-anti-PLK is excited at 320 nm and emits at 615 nm to excite the SA-APC which in turn emits at 655 nm. The ratio of SA-APC at 655 nm (excited due to close proximity to the Eu-anti-PLK because of phosphorylation of the peptide) to free Eu-anti-PLK at 615 nm will give substrate phosphorylation.

The compound `CN1CCCC1CCNc1nccc(-c2cccnc2Oc2ccc(Nc3nc4ccccc4[nH]3)c3ccccc23)n1` (stereo not drawn) [Example 46, N-(4-((3-(2-((2-(1-methyl-2-pyrrolidinyl)ethyl)amino)-4-pyrimidinyl)-2-pyridinyl)oxy)-1-naphthalenyl)-1H-benzimidazol-2-amine] gave a pIC50 of at least 5.30. Compound `Cc1ccc2nc(Nc3ccc(Oc4ncccc4-c4ccncn4)c(C)c3)oc2c1` [Example 48, 6-methyl-N-(3-methyl-4-((3-(4-pyrimidinyl)-2-pyridinyl)oxy)phenyl)-1,3-benzoxazol-2-amine] showed a pIC50 of at least 5.30. `Cn1cc(-c2ccccc2)nc1Nc1ccc(Oc2ncccc2-c2ccnc(N)n2)cc1` [Example 115, 4-(2-((4-((1-methyl-4-phenyl-1H-imidazol-2-yl)amino)phenyl)oxy)-3-pyridinyl)-2-pyrimidinamine]: the pIC50 is at least 5.30.
